The subject of experiment [1] is cardiomyocytes of newborn mice. The experiment in a line: Mouse pharmacological treatment of newborn mice: binucleated cardiomyocytes, cardiomyocyte endowment, cell cycle activity, heart weight. It is filed as in vivo. Conditions: for increase of cardiomyocyte endowment: counting fixation-digested hearts, FIG. 12D. As to the method: […] An equal volume of phosphate buffered saline (PBS) was injected in the control groups.
Isolation of intact cardiomyocytes for quantification: We used a previously validated fixation digestion method to isolate intact cardiomyocytes from fresh or frozen myocardium for quantification (Mollova, M., et al. “Cardiomyocyte proliferation in human heart growth” Proceedings of the National Academy of Sciences January 2013, 110 (4) 1446-1451; DOI: 10.1073/pnas.1214608110). The myocardium was cut into 1 cubic millimeter (mm^3) sized tissue blocks followed by incubation with 3.7% formaldehyde at room temperature for 1.8 hours. After being washed with PBS 3 times to remove the formaldehyde, the fixed tissue blocks were digested in enzyme solution (Collagenase B, 3.6 mg/ml; Collagenase D, 4.8 mg/ml) at 37 degrees Celsius (° C.), with 10 revolutions per minute (rpm) overhead rotation. The digested cells were collected every 24 hours from the supernatant, and the undigested tissue was re-suspended with fresh enzyme solution until all of the tissue pieces were digested. All of the digested cells from the same heart were then combined and allowed to settle to the bottom of the tube. The cell pellet was collected for further study.
Counting of cardiomyocytes after fixation and digestion: All fractions from the digestion of a heart were combined in 2 milliliters (mL) PBS and cardiomyocytes were quantified using a hemocytometer.
Intact cardiomyocytes in suspension. To assess M-phase, intact cardiomyocytes were isolated by fixation-digestion. The solution containing the stained cells was then transferred to 8-well chambered cover glass (400 μl/well). After the cells were settled down to the bottom of the chambers, the number of mono/bi/multinucleated cardiomyocytes were counted with a fluorescence microscope, and the percentage of mono/bi/multinucleated cardiomyocytes was calculated. To quantify the proportion of H3P-positive cardiomyocytes, the concentration of stained cardiomyocytes in suspension (Ccardiomyocytes) was first measured using a hemocytometer. The cell suspension (400 μl) was then transferred to a well of a chamber slide, and the total number of H3P-positive cardiomyocytes (HH3P+) inside the well was counted with a TiE epifluorescence microscope. The proportion of the H3P-positive cardiomyocytes (PH3P+) was calculated using the following formula: […]
Heart sections: To determine S-phase, BrdU (40 μg/g body) was administered to P7 ICR mice and the hearts were resected at P8, fixed, and cryosectioned at 15 μm thickness. From each heart, four heart sections at a distance of 300 μm were selected and imaged by tile scanning with a Nikon A1R confocal microscope. The total number of BrdU-positive cardiomyocytes at the selected heart sections was counted. The total area of the selected heart sections was measured by Fiji software. The density of BrdU-positive cardiomyocytes (cells/mm^2) in the hearts was calculated using the following equation: […]
Intact cardiomyocytes in suspension. Cardiomyocytes were isolated from fresh or frozen (human or mouse) ventricle myocardium using the fixation-digestion method, followed by immunostaining as described above. The cells were then imaged and quantified with a Nikon A1R microscope for mono/bi/multi-nucleation.

Experiment [2] deals with adult mouse heart after myocardial infarction. As to the kind of experiment: Neonatal propranolol treatment followed by adult baseline analysis and myocardial infarction (LAD ligation) with cardiac MRI, AFOG histology and stereology. Format: in vivo. Here is the method:
Mouse myocardial injury model: ICR mice were treated with propranolol (10 μg/g, 2 i.p. injections/day) from P1 to P12. Then, cardiac injury was induced to male mice via performing left anterior descending artery (LAD) ligation at the age of P40 to P60. Briefly, the mice were anesthetized with 4% isoflurane, intubated, and ventilated with a stroke volume of 225 microliters (μl) at 145 breaths/minute. The hearts were exposed by performing thoracotomy and the LAD coronary artery was tied with 8-0 nylon suture. After the chest was […] with 6-0 suture, bupivacaine (8 μg/g) was locally administered through subcutaneous injection. The mice were kept intubated without isoflurane at room temperature until waking up from the anesthesia. Bupivacaine (8 μg/g) was administered by subcutaneous injection in the following 3 days (1 day post injury (dpi) to 3 dpi). The heart function after LAD ligation was measured by cardiac MRI at 1-3 days post injury (dpi, acute injury period) and 10-12 dpi (recovery period), respectively.
Quantification of cardiomyocytes with unbiased stereology: Mouse hearts were washed in cardioplegia solution (PBS, […] potassium chloride (KCl)), weighed, and fixed with 3.7% formaldehyde at room temperature overnight. The hearts were then placed in 30% sucrose at 4° C. for 48 hours. The atria were cut off and the ventricles were embedded in OCT and sectioned on a Leica CM1950 cryostat in cross-sectional orientation (thickness 15 μm), resulting in 75-80 slides/heart with 4 sections each. For random systematic sampling we used a random number generator ranging between […] to determine the first slide and then selected every 17th slide for staining. Myocardial volume and scar were quantified by point count method on AFOG-stained sections. Briefly, tissue sections were stained with Acid fuchsin-orange G (AFOG; Polizzotti et al.) and photomicrographs were taken on a Leica MZ26 dissector microscope (objective lens 10×). Areas of myocardium (red after AFOG staining) and scar (blue after AFOG staining) were quantified using ImageJ (version 1.51s). The image was overlaid with a grid to determine area per point. The distance between selected sections was calculated (17th slide×4 sections/slide×15 μm section thickness). The LV myocardial volume was measured by counting the number of grids on both LV myocardium and the scar region. We used the optical dissector method to determine the volume density of cardiomyocyte nuclei. The optical dissector operates optimally at 3 μm distance between lookup and counting frames. Adult mouse hearts were sectioned with a cryostat set at 15 μm. Slides were stained with α-actinin and Hoechst and imaged with an A1R laser-scanning confocal microscope (×60 oil lens).
Briefly, the immunofluorescence stained sections were imaged using a Nikon A1R confocal microscope. We selected four random spots on the technically-best section from each slide and analyzed 20 random samples from each heart. The total number of positive cardiomyocyte nuclei per heart was counted and the mean per sample volume was calculated. Total number of cardiomyocytes (endowment) was calculated as: Number of cardiomyocytes=Number of cardiomyocyte nuclei/(Mono %+2×Bi %[…]+4×Tetra %).
Adult mouse cardiac MRI: Mice were anesthetized with 4% isoflurane mixed with room air in an induction box for 1 to 3 minutes. The depth of anesthesia was monitored by toe reflex, extension of limbs, and spine positioning. Once an appropriate depth of anesthesia was established, mice were placed on a custom-built mouse holder and the anesthesia was maintained by 1.5 to 2% isoflurane with 100% oxygen via a nose cone. […] The respiration waveform was automatically processed to detect inspiration, expiration, and respiration rate. In-vivo cardiac MRI (CMR) was carried out on a Bruker Biospec 7T/30 system (Bruker Biospin MRI, Billerica, Mass.) with the 35-mm quadrature coil for both transmission and reception.

As for `CC(C)NCC(O)COc1cccc2ccccc12` (stereo not shown) [propranolol, 1-naphthalen-1-yloxy-3-(propan-2-ylamino)propan-2-ol], the “fewer cardiomyocytes undergoing cytokinesis failure than PBS-treated pups” value in experiment [1] (at P8) was determined as 13.6%. Further, the “additional cardiomyocytes predicted to be generated by enabling completion of cytokinesis” value in experiment [1] (at P8, back-of-the-envelope calculation from endowment of PBS-treated pups at P4) is recorded as 0.22×10^6 cardiomyocytes. Moreover, the “propranolol-induced increase of endowment between P4 and P8 (treated minus PBS)” value in experiment [1] (calculated from the counts) was 0.18×10^6 cardiomyocytes. Further, the heart weight entry in experiment [1] (newborn mice, 2 i.p. injections per day, FIG. 16A, 16B) is recorded as “not changed”. The “increase of cardiomyocyte endowment” value is reported as 22% in experiment [1] (newborn mice, at P4, 10 μg/g, 2 i.p. injections per day) and 30% in experiment [1] (newborn mice, at P8, 2 i.p. injections per day, 12H). In experiment [1] (newborn mice, at P8, FIG. 12E), the “cardiomyocyte cell cycle entry (quantified by BrdU uptake)” value was “without a change”. In experiment [1] (newborn mice, at P8, FIG. 12F), the “progression to M-phase (quantified by H3P-staining)” value was “without a change”. Moreover, the “decrease of the proportion of binucleated cardiomyocytes” value in experiment [1] (newborn mice, treatment from P1 to P4, 10 μg/g, 2 i.p. injections per day, FIG. 12C) stood at 21%. Moreover, the “decrease of the proportion/formation of binucleated cardiomyocytes” value in experiment [1] (newborn mice, treatment from P1 to P8, 2 i.p. injections per day (propranolol 10 μg/g; alprenolol 10 μg/g, 40 μg/g), FIG. 12C, 12G) was found to be 17%. Also, the “increase of cardiomyocyte endowment between P4 and P8 in treated pups” value in experiment [1] (propranolol-treated pups, from counts) is reported as 0.35×10^6 cardiomyocytes. Further, in experiment [2] (12 dpi, AFOG staining, vs control, FIG. 13K), the “scar size, determined by histology” value was “not different”. Also, the “region of myocardium affected by ischemia, visualized by LGE” value in experiment [2] (after MI, vs control, FIG. 13D, 13E) is given as “not different”. Besides, in experiment [2] (after MI, vs control, FIG. 13J), the relative systolic thickening entry was “higher”. The “higher cardiomyocyte endowment after MI” value in experiment [2] (determined by stereology, vs control, FIG. 13L) is reported as 30%. Besides, the “increased cardiomyocyte endowment in adult hearts at baseline” value in experiment [2] (propranolol 10 μg/g, 2 i.p. injections per day, P1-12, P42, FIG. 13A) is on record as “persisted until adulthood”. Also, in experiment [2] (propranolol P1-12, P60, FIG. 13B), the “cardiac function (ejection fraction) of adult hearts at baseline” value is reported as “did not alter”. Also, in experiment [2] (recovery phase, vs control, FIG. 13H, 13I), the “thinned region of the LV myocardium after myocardial infarction” value was “significantly smaller”. The molecule also yielded an MRI-measured ejection fraction in experiment [2] (twelve days after MI (recovery phase), FIG. 13F, 13G) of 42%. In addition, in experiment [2] (two days after MI (acute phase), FIG. 13D, 13E), the “infarct size by late gadolinium-enhancement vs control” value is recorded as “same”. Also, the “ejection fraction (MRI) vs control” value in experiment [2] (two days after MI (acute phase), FIG. 13F, 13G) is reported as “same”. Also, the “heart weight (heart weight to body weight ratio) after MI” value in experiment [2] (vs control, FIG. 13M) is recorded as “not changed”.

The values above are taken from patent US20220280607A1, “Treatment of Heart Defects and Conditions in Pediatric Patients” (University of Pittsburgh - Of the Commonwealth System of …, priority 2019, published 2022).
